Data on eight compounds can be found in patent EP0409527A2, “Cis-diamineplatinum complexes with methanediphosphonate and substituted methanediphosphonate ligands as antitumor agents” (ENGELHARD CORPORATION, priority 1989, dated 1991).

For one experiment, the system named is L1210 leukemia. Kind of experiment: L1210 screening (L1210 leukemia tumor model, survival). It is filed as in vivo, Female CDF, mice. As to conditions: for %ILS: 25% ILS or greater indicates activity, maximum 200%. On the procedure:
(§1) The platinum-diphosphonate complexes were tested for antitumor activity using both Sarcoma 180 ascites and L1210 leukemia tumor models (see Tables 3 and 4).
Female CDF, mice (16-22g) were injected with a suspension of 1x10^6 tumor cells in 0.5 mL of […] on day zero. On day one, the mice received the test compound in 0.5 mL of the chosen medium (usually water). Six mice were used for each test dose and six doses were normally given. Normal controls (six mice) received tumor on day zero and 0.5 mL of test medium on day one. Positive controls (six mice) were given tumor on day zero and 8 mg/kg cisplatin in 0.5 mL of […] on say one. All compound doses were adjusted for the actual average weight of the mice involved. Testing was terminated at 3 time the normal control mean life span. The percent increase in lifespan (%ILS) was calculated as follows: %ILS = [(mean life span (test)/mean life span (control))-1] X 100% A 25% ILS or greater indicates activity in this screen. The maximum possible ILS is 200%. The positive control must have an ILS > 25% for the test to be considered valid.

The subject of the next experiment is Sarcoma 180 ascites. Description: S180a screening (Sarcoma 180 ascites tumor model, survival). It is filed as in vivo, Female CFW mice. The following applies: for %ILS: ILS > 50% indicates activity. On the procedure:
as §1
Female CFW mice (18-25g) were implanted with 2 x 10^6 cells ip on day zero. Compounds were administered in 0.5 mL water ip on say one. Groups of 6 mice were used for each test dose as well as controls as defined above. The test was run for twice the MST of the control group, with survivors counted as dying on that day. An ILS of > 50% indicates activity. The tumor line was maintained through weekly transfer of 4 x 10^6 cells in CFW mice.

Experiment [1] deals with L1210 murine tumor system. The following applies: Nepras, Masters Thesis 1979; cited from earlier work.
The mark [2] stands for this setting: L1210, dose 10.00 mg/kg day one.
Where [3] appears, read: L1210, dose 20.00 mg/kg day one.
The mark [4] stands for this setting: L1210, dose 40.00 mg/kg day one.
Setting [5] is: L1210, dose 80.00 mg/kg day one.
Where [6] appears, read: L1210, dose 160.00 mg/kg day one.
Setting [7] is: L1210, dose 320.00 mg/kg day one.
Where [8] appears, read: L1210, survivors/mice, dose 10.00 mg/kg.
Where [9] appears, read: L1210, survivors/mice, dose 20.00 mg/kg.
Where [10] appears, read: L1210, survivors/mice, dose 40.00 mg/kg.
Setting [11] is: L1210, survivors/mice, dose 80.00 mg/kg.
Where [12] appears, read: L1210, survivors/mice, dose 160.00 mg/kg.
Where [13] appears, read: L1210, survivors/mice, dose 320.00 mg/kg.
Setting [14] is: survivors/mice, dose 10.00 mg/kg ip.
[15] abbreviates: survivors/mice, dose 20.00 mg/kg ip.
[16] abbreviates: survivors/mice, dose 40.00 mg/kg ip.
[17] abbreviates: survivors/mice, dose 80.00 mg/kg ip.
[18] abbreviates: survivors/mice, dose 320.00 mg/kg ip.
[19] abbreviates: survivors/mice, dose 160.00 mg/kg ip.

“And” between values parts separate entries of the source, which are not always exact repeats. Equal values may be shown once.

Consider `CC(O)(P(=O)([O-])[O-])P(=O)([O-])[O-].NC1CCCCC1N.NC1CCCCC1N.[Pt+2].[Pt+2]` [Example 4, [Pt2(R,R-dach)2(HEDP)]], for which the “%ILS” value turned out to be 8% in the experiment on L1210 leukemia (setting [2]); 3% in the experiment with L1210 leukemia (setting [3]); 24% in the experiment on L1210 leukemia (setting [4]); 28% in the experiment on L1210 leukemia (setting [5]); 40% with L1210 leukemia (setting [6]); 72% in the experiment on L1210 leukemia (setting [7]). Further, the “%ILS” value was -7% in the experiment with Sarcoma 180 ascites (dose 10.00 mg/kg ip day one); -10% and -4% in the experiment on Sarcoma 180 ascites (dose 20.00 mg/kg ip day one, 20 mg/kg); 95% and 77% in the experiment with Sarcoma 180 ascites (dose 160.00 mg/kg ip day one, 160 mg/kg); 47% in the experiment on Sarcoma 180 ascites (dose 256.00 mg/kg ip day one); 75% in the experiment with Sarcoma 180 ascites (dose 320.00 mg/kg ip day one). The SURV in the experiment with L1210 leukemia (setting [8]), in the experiment on L1210 leukemia (setting [9]), in the experiment with L1210 leukemia (setting [10]), in the experiment on L1210 leukemia (setting [11]), in the experiment on L1210 leukemia (setting [12]) and with L1210 leukemia (setting [13]) was 0/ 6 throughout. Also, the SURV in the experiment with Sarcoma 180 ascites (setting [14]) was 0/ 6; in the experiment on Sarcoma 180 ascites (setting [15]), 0/ 6; in the experiment with Sarcoma 180 ascites (setting [16]), 0/ 6; in the experiment on Sarcoma 180 ascites (setting [17]), 0/ 6; in the experiment on Sarcoma 180 ascites (survivors/mice, dose 160.00 mg/kg ip, 160 mg/kg), 5/ 6 and 3/ 6; in the experiment on Sarcoma 180 ascites (survivors/mice, dose 256.00 mg/kg ip) it was 1/ 6. The SURV with Sarcoma 180 ascites (setting [18]) was 4/ 6.

On to `CC(O)(P(=O)([O-])[O-])P(=O)([O-])[O-].NCCN.NCCN.[Pt+2].[Pt+2]` [[Pt2(en)2(HEDP)]], for which, in experiment [1], the antitumor activity result was “inactive”.

For `NCCN.NCCN.O=P([O-])([O-])CP(=O)([O-])[O-].[Pt+2].[Pt+2]` [[Pt2(en)2(MDP)]], in experiment [1], the antitumor activity result was “inactive”.

As for `N.N.[Cl][Pt][Cl]` [cisplatin, reference compound], the “POS CONT SURV” value in the experiment with L1210 leukemia (L1210, survivors/mice, positive control of the respective experiment, 8 mg/kg cisplatin, 8 mg/kg) was 3/ 6 and 4/ 6 and 0/ 6 and 1/ 6; in the experiment with Sarcoma 180 ascites (survivors/mice, positive control of the respective experiment, 8 mg/kg cisplatin, 8 mg/kg), 2/ 5 and 4/ 6 and 3/ 6 and 1/ 6. Also, the “POS CONT %ILS” value in the experiment on Sarcoma 180 ascites (positive control of the respective experiment, 8 mg/kg cisplatin in saline, 8 mg/kg) is 58% and 92% and 82% and 63%.

For the compound Na[Pt2(R,R-dach)2(PDP)] [Example 3], the “%ILS” value is on record as 1% with L1210 leukemia (setting [2]); 28% with L1210 leukemia (setting [3]); 28% in the experiment with L1210 leukemia (setting [4]); 55% with L1210 leukemia (setting [5]); 104% in the experiment on L1210 leukemia (setting [6]); 111% in the experiment on L1210 leukemia (setting [7]). Moreover, the SURV in the experiment with L1210 leukemia (setting [8]) is listed as 0/ 6; in the experiment with L1210 leukemia (setting [9]), 0/ 6; with L1210 leukemia (setting [10]), 0/ 6; in the experiment with L1210 leukemia (setting [11]), 0/ 6; with L1210 leukemia (setting [12]), 2/ 6; in the experiment with L1210 leukemia (setting [13]) it was 2/ 6.

As to Na[Pt2(en)2(PDP)] [Example 2], the “%ILS” value was 0% in the experiment with L1210 leukemia (setting [2]); -3% with L1210 leukemia (setting [3]); 0% in the experiment on L1210 leukemia (setting [4]); 20% in the experiment with L1210 leukemia (setting [5]); 23% in the experiment with L1210 leukemia (setting [6]); 11% with L1210 leukemia (setting [7]). Further, the “%ILS” value in the experiment with Sarcoma 180 ascites (dose 10.00 mg/kg ip day one) was -4%; with Sarcoma 180 ascites (dose 20.00 mg/kg ip day one) it was 5%; with Sarcoma 180 ascites (dose 40.00 mg/kg ip day one), 6%; with Sarcoma 180 ascites (dose 80.00 mg/kg ip day one), 27%; in the experiment with Sarcoma 180 ascites (dose 160.00 mg/kg ip day one), 48%; in the experiment on Sarcoma 180 ascites (dose 320.00 mg/kg ip day one) it was 49%. Moreover, the SURV in the experiment on L1210 leukemia (setting [8]), in the experiment with L1210 leukemia (setting [9]), in the experiment with L1210 leukemia (setting [10]), in the experiment on L1210 leukemia (setting [11]), with L1210 leukemia (setting [12]) and with L1210 leukemia (setting [13]) was 0/ 6 throughout. In addition, the SURV in the experiment on Sarcoma 180 ascites (setting [14]) was 0/ 6; with Sarcoma 180 ascites (setting [15]), 0/ 6; in the experiment on Sarcoma 180 ascites (setting [16]), 0/ 6; in the experiment on Sarcoma 180 ascites (setting [17]), 1/ 6; with Sarcoma 180 ascites (setting [19]) it was 1/ 6; in the experiment with Sarcoma 180 ascites (setting [18]), 1/ 6.

“[Pt2(en)2(PDP-D-glucosamine)] [Example 5]”: the “%ILS” value in the experiment on L1210 leukemia (setting [2]) is listed as -8%; in the experiment on L1210 leukemia (setting [3]), -15%; in the experiment on L1210 leukemia (setting [4]), 10%; in the experiment with L1210 leukemia (setting [5]) it was 4%; in the experiment on L1210 leukemia (setting [6]) it was 13%; with L1210 leukemia (setting [7]), 16%. In addition, the “%ILS” value in the experiment on Sarcoma 180 ascites (dose 10.00 mg/kg ip day one) is 0%; in the experiment on Sarcoma 180 ascites (dose 20.00 mg/kg ip day one) it was -3%; with Sarcoma 180 ascites (dose 40.00 mg/kg ip day one), -5%; with Sarcoma 180 ascites (dose 80.00 mg/kg ip day one), 0%; in the experiment on Sarcoma 180 ascites (dose 160.00 mg/kg ip day one), 0%; with Sarcoma 180 ascites (dose 320.00 mg/kg ip day one) it was 28%. Also, the SURV in the experiment with L1210 leukemia (setting [9]), with L1210 leukemia (setting [10]), in the experiment on L1210 leukemia (setting [11]), in the experiment on L1210 leukemia (setting [12]), in the experiment with L1210 leukemia (setting [13]) and with Sarcoma 180 ascites (setting [14]) was 0/ 6 each time. For the same compound, the SURV in the experiment on Sarcoma 180 ascites (setting [15]) is 0/ 6; in the experiment with Sarcoma 180 ascites (setting [16]), 0/ 6; in the experiment with Sarcoma 180 ascites (setting [17]) it was 0/ 6; in the experiment on Sarcoma 180 ascites (setting [19]), 0/ 6; in the experiment on Sarcoma 180 ascites (setting [18]), 0/ 5.

As for [Pt2(en)2(PDP-hydrazide)] [Example 7], the “%ILS” value in the experiment on L1210 leukemia (setting [2]) is given as -14%; with L1210 leukemia (setting [3]) it was 21%; with L1210 leukemia (setting [4]) it was -18%; in the experiment on L1210 leukemia (setting [5]) it was -14%; in the experiment with L1210 leukemia (setting [6]) it was 20%; in the experiment on L1210 leukemia (setting [7]) it was 0%. The SURV with L1210 leukemia (setting [8]), in the experiment with L1210 leukemia (setting [9]), in the experiment on L1210 leukemia (setting [10]), with L1210 leukemia (setting [11]), in the experiment on L1210 leukemia (setting [12]) and in the experiment on L1210 leukemia (setting [13]) was 0/ 6 throughout.
